Assay results published in publication PMC3921447, “Homologous and heterologous desensitization of guanylyl cyclase-B signaling in GH3 somatolactotropes” (Cell and Tissue Research, 2013).
Read-outs that look alike come from different tables or passages of the source. Ends that are not written are not given here.

Columns and labels:
[1] = target: T1, GC-B (Rattus norvegicus, UniProt P16067); test: Heterologous desensitization of CNP-stimulated (GC-B) cGMP accumulation in GH3 cells; format: cell-based; details: then 100 nM CNP 15 min with 1 mM IBMX, n = 3
T1 construct: rapid homologous desensitization of endogenous GC-B receptors in GH3 cells; endogenous in cells; host or cells: GH3 rat somatolactotrope cells
T1 sequence (P16067 17-1047): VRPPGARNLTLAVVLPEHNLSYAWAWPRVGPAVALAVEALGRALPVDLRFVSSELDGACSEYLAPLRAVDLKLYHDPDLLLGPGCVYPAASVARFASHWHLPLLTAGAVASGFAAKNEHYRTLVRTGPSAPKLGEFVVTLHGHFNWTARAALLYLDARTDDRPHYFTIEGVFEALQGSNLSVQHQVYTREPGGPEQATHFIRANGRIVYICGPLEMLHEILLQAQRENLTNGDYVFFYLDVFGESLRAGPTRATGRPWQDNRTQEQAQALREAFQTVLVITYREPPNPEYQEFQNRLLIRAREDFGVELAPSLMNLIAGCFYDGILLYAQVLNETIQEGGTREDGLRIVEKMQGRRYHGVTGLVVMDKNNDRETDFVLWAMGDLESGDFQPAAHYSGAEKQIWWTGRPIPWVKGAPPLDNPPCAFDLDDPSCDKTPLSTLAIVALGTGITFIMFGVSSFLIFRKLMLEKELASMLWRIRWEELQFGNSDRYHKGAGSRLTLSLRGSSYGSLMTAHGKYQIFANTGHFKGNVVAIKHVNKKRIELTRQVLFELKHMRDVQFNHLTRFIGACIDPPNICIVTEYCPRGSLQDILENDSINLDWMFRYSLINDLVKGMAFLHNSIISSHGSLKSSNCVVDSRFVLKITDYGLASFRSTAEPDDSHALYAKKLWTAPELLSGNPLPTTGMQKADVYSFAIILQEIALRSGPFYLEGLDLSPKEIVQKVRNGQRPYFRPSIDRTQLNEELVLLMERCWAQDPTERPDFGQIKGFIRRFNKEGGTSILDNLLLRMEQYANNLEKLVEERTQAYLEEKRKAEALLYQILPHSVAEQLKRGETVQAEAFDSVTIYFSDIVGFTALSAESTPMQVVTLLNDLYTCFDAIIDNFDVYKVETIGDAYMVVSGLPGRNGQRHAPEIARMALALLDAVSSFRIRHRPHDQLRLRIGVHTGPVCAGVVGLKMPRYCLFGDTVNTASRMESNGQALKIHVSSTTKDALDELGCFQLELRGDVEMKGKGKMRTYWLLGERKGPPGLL
From the text: (§1) Sphingolipids and calcium have been implicated in regulating natriuretic peptide signaling (Abbey-Hosch et al. [2004]; Abbey and Potter [2002]). Therefore, we examined the role of sphingosine-1-phosphate (S1P) on CNP-stimulated cGMP accumulation. […] However, S1P pre-treatment did cause desensitization of CNP-stimulated cGMP accumulation (by 30 ± 2.7 % compared with control, **P < 0.01).
(§2) Fig. 6 Evidence of sphingosine-mediated but not calcium-mediated, heterologous desensitization of GC-B signaling in GH3 somatolactotrope cells. GH3 cells were pre-treated with PSS containing either (a, b) 10 μM sphingosine-1-phosphate (S1P) or (c, d) 1 μM A23187 (calcium ionophore) for 30 min in the absence of IBMX, before a 15-min stimulation with either 100 nM CNP (a, c) or 100 nM ANP (b, d) in the presence of 1 mM IBMX.
(§3) Subsequent experiments examined the potential regulation of GC-B signaling by other peptide hormones. To determine whether the GC-B receptor underwent heterologous desensitization in GH3 cells, the effect of three known activators of PKC on CNP-stimulated cGMP accumulation was analyzed. […] To establish whether the TRH-induced heterologous desensitization of GC-B signaling was PKC-dependent, GH3 cells were pre-treated with either 0 or 1 μM GF109203X for 30 min to inhibit PKC activity. After this, cells were further pre-treated in the absence or presence of GF109203X and 0 or 100 nM TRH for a further 30 min, prior to stimulation with 0 or 100 nM CNP for a final 15-min stimulation in the presence of 1 mM IBMX.
(§4) Fig. 7 Protein kinase C (PKC)-dependent heterologous desensitization mediates the effects of thyrotrophin-releasing hormone (TRH) on CNP-stimulated GC-B signaling in GH3 somatolactotrope cells. a GH3 cells were pre-treated with PSS containing either 0 or 100 nM TRH, phorbol-12-myristate-13-acetate (PMA), or pituitary adenylate cyclase-activating polypeptide (PACAP) for 30 min in the absence of IBMX, before a 15-min stimulation with either 0 or 100 nM CNP in the presence of 1 mM IBMX.

[2] = system: human airway smooth muscle cells; details: ref Hamad and Knox [1999]; cited from earlier work
From the text: (§5) The other major mechanism mediating heterologous desensitization of GC-A and GC-B signaling is the PKC pathway (Potter et al. [2006]). We examined the effects of pre-treatment with TRH, PMA, or PACAP. […] This is in agreement with the predominant expression of vasoactive intestinal peptide activated receptor 2, which is known preferentially to activate cAMP and PKA (Hao et al. [2006]). In contrast, pre-treatments with two known activators of PKC, TRH and PMA do ...

[3] = system: GC-B; details: αT3-1 cells, cited from earlier work
From the text: Experimental paradigms to investigate receptor desensitization are often performed in one of two ways: time-course studies of a single continuous exposure to ligand or pre-treatment and subsequent re-exposure to the same ligand. Our current studies involved the use of both of these approaches to examine particulate guanylyl cyclase signaling in GH3 cells, similar to previous studies investigating PACAP signaling in gonadotropes (McArdle and Forrest-Owen [1997]). Time-course studies of CNP-stimulated cGMP accumulation in GH3 cells have shown a rapid elevation of cGMP levels within 5 min of CNP ... || The other major mechanism mediating heterologous desensitization of GC-A and GC-B signaling is the PKC pathway (Potter et al. [2006]). We examined the effects of pre-treatment with TRH, PMA, or PACAP. […] This is in agreement with the predominant expression of vasoactive intestinal peptide activated receptor 2, which is known preferentially to activate cAMP and PKA (Hao et al. [2006]). In contrast, pre-treatments with two known activators of PKC, TRH and PMA do ...

[4] = system: GC-B; details: 293 T cells; ref Abbey-Hosch et al. [2005]; cited from earlier work
From the text: as §5

[5] = system: GH3 cells; test: Basal cGMP accumulation in GH3 cells after pre-treatment; format: cell-based, rat; details: 100 nM TRH, PMA or PACAP, 30 min pre-treatment; ns, P > 0.05; Fig. 7a
From the text: as §1, §2, §3, §4

[6] = system: growth hormone secretion; details: ref Hartt et al. [1995]; Shimekake et al. [1994]; cited from earlier work
From the text: Both humans and mice with mutations in the genes encoding either CNP or its receptor, GC-B, suffer from severe growth disorders (Chusho et al. [2001]) and, in some cases, growth hormone deficiency (Tamura et al. [2004]). Despite significant homology between the three natriuretic peptides and between their receptors, mutations in the genes encoding ANP, BNP, or GC-A fail to phenocopy CNP/GC-B-disrupted mice (Kishimoto et al. [2011]). Our recent observations of GC-B expression in normal fetal pituitary tissue and in a range of human pituitary adenomas (including those from acromegalics) strongly ...

CN(C)CCCn1cc(C2=C(c3c[nH]c4ccccc34)C(=O)NC2=O)c2ccccc21 [GF109203X]
CNP-stimulated cGMP, % of control response to CNP (TRH desensitization reversed to) ([1]; 1 μM GF109203X 30 min, then GF109203X + 100 nM TRH 30 min, ns compared with control, Fig. 7b): 76.4 ± 17.2% | reversal of PKC-dependent desensitization [2]: capable of reversing the effect, as has been described previously in human airway smooth muscle cells

CCCCCCCCCCCCCC(=O)O[C@@H]1[C@@H](C)[C@@]2(O)[C@@H](C=C(CO)C[C@]3(O)C(=O)C(C)=C[C@@H]23)[C@@H]2C(C)(C)[C@]12OC(C)=O [PMA, phorbol-12-myristate-13-acetate]
desensitization of GC-B activity ([3]; ref Fowkes et al. [2000]): shown to desensitize GC-B activity in 293 T cells and αT3-1 cells | reduction in CNP-stimulated cGMP accumulation compared with control ([1]; 100 nM, 30 min pre-treatment without IBMX, ***P < 0.001, Fig. 7a): 51.9 ± 2.8% | desensitization of GC-B activity [4]: shown to desensitize GC-B activity in 293 T cells and αT3-1 cells | basal cGMP accumulation [5]: failed to alter basal cGMP accumulation

Nc1nc2c(ncn2[C@@H]2O[C@@H]3COP(=O)(O)O[C@H]3[C@H]2O)c(=O)[nH]1 [cGMP, cyclic guanosine 3’,5’ monophosphate]
growth hormone secretion [6]: act as growth hormone secretogogs

gonadotrophin-releasing hormone (QHWSYGLRPG; ends and bridges not checked; UniProt P01148 24-33, looked up)
heterologous desensitization of GC-B signaling ([3]; ref McArdle et al. [1994], Fowkes et al. [2000]): can cause the heterologous desensitization of GC-B signaling in αT3-1 cells
